pIC50: −log10 of the molar value. “And” between values parts separate entries of the source, which are not always exact repeats. Equal values may be shown once. Read-outs that look alike come from different tables or passages of the source.
Experiments:
HSA = details: cited from earlier work
HSA Site I (warfarin) = test system: T1, HSA Site I (warfarin); test: Ultrafiltration: displacement of Site I marker warfarin from HSA; assay type: binding, human; details: warfarin 1.0 μM, HSA 5.0 μM, PBS pH 7.4
T1 construct: purchased Sigma-Aldrich
Method: Pall Microsep Advance centrifugal devices with a 10-kDa molecular weight cut-off (MWCO) value (VWR; Budapest, Hungary) were applied. […] Before ultrafiltration, the filter units were washed once with 3.0 mL of distilled water and twice with 3.0 mL of PBS; then, samples (with a 2.5 mL volume) were driven through the filters by centrifugation (10 min, 7500× g, fixed-angle rotor, 25 °C). The concentrations of site markers in the filtrates were quantified with HPLC (see Section 2.5). […] The samples were driven through a Nova-Pak C18 guard column (3.9 × 20 mm, 4 μm; Waters,) and a Nova-Pak C18 analytical column (3.9 × 150 mm, 4 μm; Waters). The mobile phase contained sodium phosphate buffer (25 mM, pH 7.0), methanol, and acetonitrile (70:25:5 v/v%).

[1] = test system: T2, human serum albumin (HSA); test: Fluorescence quenching of HSA by DHF (Stern-Volmer, Hyperquad2006); assay type: binding; details: HSA 2 μM, PBS pH 7.4, 25 °C
T2 construct: purchased Sigma-Aldrich
Method: Fluorescence spectroscopic measurements were carried out using a Hitachi F-4500 fluorescence spectrophotometer (Tokyo, Japan). The binding constant of the DHF–HSA complex was determined by fluorescence quenching, during which increasing amounts of DHF (final concentrations: 0, 0.5, 1.0, 2.0, 3.0, 4.0, 5.0, and 6.0 μM) were added to HSA (2 μM) in phosphate buffered saline (PBS; pH 7.4; containing 8.00 g/L NaCl, 0.20 g/L KCl, 1.81 g/L Na2HPO4 × 2H2O, and 0.24 g/L KH2PO4); then, emission spectra were recorded using 295-nm excitation wavelength (at 25 °C, in the presence of air). DHF-HSA interaction was evaluated using the graphical application of the Stern-Volmer equation [25, 26]:(1) I0/I=[…], where I0 and I are the fluorescence emission intensity of HSA at 340 nm in the absence and presence of DHF, respectively. KSV denotes the Stern–Volmer quenching constant (unit: L/mol), and [Q] is the concentration of DHF (unit: mol/L). Furthermore, the binding constant (K; unit: L/mol) of the DHF–HSA complex was determined by nonlinear fitting applying the Hyperquad2006 software as described elsewhere. […]

[2] = target: T3, xanthine oxidase (XO; from bovine milk) (Bos taurus, UniProt P80457); test: Xanthine oxidase in vitro enzyme assay (6-mercaptopurine to 6-thiouric acid); assay type: biochemical; details: substrate 6-mercaptopurine 5.0 μM
T3 construct: xanthine oxidase (XO; from bovine milk); purchased Sigma-Aldrich; host or cells: bovine milk
T3 sequence (P80457 whole entry): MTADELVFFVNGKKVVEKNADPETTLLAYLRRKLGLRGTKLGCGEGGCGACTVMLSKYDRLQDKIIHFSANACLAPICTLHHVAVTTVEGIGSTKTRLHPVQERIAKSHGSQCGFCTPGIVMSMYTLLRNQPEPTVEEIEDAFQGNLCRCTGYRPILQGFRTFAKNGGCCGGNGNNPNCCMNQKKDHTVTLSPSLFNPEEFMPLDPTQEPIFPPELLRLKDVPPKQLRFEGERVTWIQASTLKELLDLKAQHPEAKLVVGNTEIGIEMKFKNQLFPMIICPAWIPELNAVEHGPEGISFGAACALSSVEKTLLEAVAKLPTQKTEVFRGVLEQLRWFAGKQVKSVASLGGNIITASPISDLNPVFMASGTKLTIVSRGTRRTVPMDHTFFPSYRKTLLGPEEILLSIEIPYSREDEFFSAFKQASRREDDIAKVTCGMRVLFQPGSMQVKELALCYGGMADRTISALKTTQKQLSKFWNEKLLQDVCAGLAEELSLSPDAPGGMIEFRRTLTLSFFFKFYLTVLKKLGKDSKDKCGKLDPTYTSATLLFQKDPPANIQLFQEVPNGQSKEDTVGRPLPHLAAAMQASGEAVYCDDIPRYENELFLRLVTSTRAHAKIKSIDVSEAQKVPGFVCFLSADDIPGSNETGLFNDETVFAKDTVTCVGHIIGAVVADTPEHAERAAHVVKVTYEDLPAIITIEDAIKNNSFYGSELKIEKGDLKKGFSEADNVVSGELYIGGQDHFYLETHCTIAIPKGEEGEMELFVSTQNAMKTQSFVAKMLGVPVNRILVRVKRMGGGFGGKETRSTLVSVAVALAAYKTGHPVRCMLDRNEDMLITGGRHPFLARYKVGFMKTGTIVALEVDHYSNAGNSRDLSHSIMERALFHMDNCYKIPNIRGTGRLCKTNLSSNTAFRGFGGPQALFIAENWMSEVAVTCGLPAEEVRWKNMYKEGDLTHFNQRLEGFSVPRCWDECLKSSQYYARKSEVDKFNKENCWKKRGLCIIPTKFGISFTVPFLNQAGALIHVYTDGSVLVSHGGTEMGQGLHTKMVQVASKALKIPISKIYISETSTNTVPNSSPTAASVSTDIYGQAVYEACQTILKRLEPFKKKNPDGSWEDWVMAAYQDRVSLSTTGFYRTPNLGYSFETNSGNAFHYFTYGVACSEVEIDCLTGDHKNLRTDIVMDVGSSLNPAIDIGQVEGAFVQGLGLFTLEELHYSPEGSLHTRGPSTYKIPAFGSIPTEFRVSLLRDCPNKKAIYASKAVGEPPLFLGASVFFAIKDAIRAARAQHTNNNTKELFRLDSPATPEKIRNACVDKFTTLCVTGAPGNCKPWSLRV
Method: The inhibitory action of DHF on XO was investigated as described earlier [31]. In the enzyme-catalyzed reaction, 6-mercaptopurine is oxidized to 6-thiouric acid. […] The incubates (with 500 μL final volume) contained XO enzyme (0.01 unit/mL), 6-mercaptopurine (5 μM), and increasing concentrations of DHF (0, 5, 10, 15, and 20 μM) in sodium phosphate buffer (50 mM, pH 7.5). Samples were incubated in thermomixer (40 min, 700 rpm, 37 °C). The reaction was started by the addition of the enzyme and stopped by the addition of 30 μL of perchloric acid (6 M). After the samples were vortexed and centrifuged (5 min, 1,4000× g, room temperature), a 300-μL aliquot of the supernatant was transferred into another Eppendorf tube; then, 36 μL of potassium hydroxide (1 M) was added to this fraction. Samples were cooled to 3 °C, then, centrifuged (5 min, 14,000× g, 3°C). 6-mercaptopurine and 6-thiouric acid were quantified in the supernatants by HPLC (see Section 2.5).
The samples were driven through a Phenomenex SecurityGuard (C18, 4.0 × 3.0 mm) guard column linked to a Phenomenex Gemini-NX C18 (150 × 4.6 mm, 3 μm) analytical column. The eluent contained methanol, acetonitrile, and 0.02 M orthophosphoric acid (4:5:91 v/v%). The isocratic elution was performed at 0.8 mL/min flow rate at room temperature. 6-mercaptopurine and 6-thiouric acid were detected at 334 nm.

CYP2C9 [3] = target: T4, CYP2C9 (Homo sapiens, UniProt P11712); test: CYP2C9 in vitro enzyme assay (diclofenac to 4'-hydroxydiclofenac)
T4 sequence (P11712 whole entry): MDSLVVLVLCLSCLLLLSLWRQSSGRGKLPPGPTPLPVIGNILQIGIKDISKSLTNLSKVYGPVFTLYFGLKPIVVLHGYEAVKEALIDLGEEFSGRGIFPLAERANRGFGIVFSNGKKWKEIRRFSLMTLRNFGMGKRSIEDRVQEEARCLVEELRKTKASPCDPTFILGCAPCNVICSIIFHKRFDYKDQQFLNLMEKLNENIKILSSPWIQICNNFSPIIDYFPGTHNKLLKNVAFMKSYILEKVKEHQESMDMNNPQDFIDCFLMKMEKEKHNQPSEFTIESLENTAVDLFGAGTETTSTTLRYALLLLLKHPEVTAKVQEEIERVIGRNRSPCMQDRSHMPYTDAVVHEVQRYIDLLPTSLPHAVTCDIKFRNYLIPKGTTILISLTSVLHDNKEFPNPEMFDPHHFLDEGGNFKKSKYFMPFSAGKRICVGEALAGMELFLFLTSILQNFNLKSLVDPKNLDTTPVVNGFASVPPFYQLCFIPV
Method: The inhibitory action of DHF on CYP2C9 was investigated as described earlier. In the enzyme-catalyzed reaction, diclofenac is oxidized to 4′-hydroxydiclofenac. […] The incubates (with 200 μL final volume) contained CypExpress 2C9 reagent (8 mg/mL) including also the NADPH (nicotinamide adenine dinucleotide phosphate, reduced) generating system, diclofenac (15 μM), and increasing concentrations of DHF (0, 15, 30, 45, and 60 μM) in potassium phosphate buffer (50 mM, pH 7.5). The incubation was carried out in a thermomixer (80 min, 700 rpm, 30 °C). The reaction was started by the addition of the enzyme and stopped by the addition of 100 μL of ice-cold methanol; then, the samples were centrifuged (10 min, 14,000× g, 25 °C). Diclofenac and 4′-hydroxydiclofenac were analyzed in the supernatants by HPLC (see Section 2.5).
Diclofenac and 4′-hydroxydiclofenac (CYP2C9 assay) were quantified as reported previously. The samples were driven through a Phenomenex Security Guard (C8, 4.0 × 3.0 mm) guard column (Torrance, CA, USA) linked to an Eclipse C8 (150 × 4.6 mm, 5 μm; Agilent, Santa Clara, CA, USA) analytical column. The separation was carried out at 1.0 mL/min flow rate at room temperature. During the isocratic elution, the mobile phase contained acetonitrile and 6 mM orthophosphoric acid (52:48 v/v%). Diclofenac and 4′-hydroxydiclofenac were detected at 275 nm.

HSA Site II (naproxen) = test system: T5, HSA Site II (naproxen); test: Ultrafiltration: displacement of Site II marker naproxen from HSA; assay type: binding, human; details: naproxen 1.0 μM, HSA 1.5 μM, PBS pH 7.4
T5 construct: purchased Sigma-Aldrich
Method: Pall Microsep Advance centrifugal devices with a 10-kDa molecular weight cut-off (MWCO) value (VWR; Budapest, Hungary) were applied. […] Before ultrafiltration, the filter units were washed once with 3.0 mL of distilled water and twice with 3.0 mL of PBS; then, samples (with a 2.5 mL volume) were driven through the filters by centrifugation (10 min, 7500× g, fixed-angle rotor, 25 °C). The concentrations of site markers in the filtrates were quantified with HPLC (see Section 2.5). Naproxen was analyzed in the filtrates as described earlier. […] The mobile phase contained acetonitrile and sodium acetate buffer (6.9 mM, pH 4.0) (50:50 v/v%). […] Naproxen was detected at 230 nm.

CYP3A4 [4] = target: T6, CYP3A4 (Homo sapiens, UniProt P08684); test: CYP3A4 in vitro enzyme assay (testosterone to 6β-hydroxytestosterone)
T6 sequence (P08684 whole entry): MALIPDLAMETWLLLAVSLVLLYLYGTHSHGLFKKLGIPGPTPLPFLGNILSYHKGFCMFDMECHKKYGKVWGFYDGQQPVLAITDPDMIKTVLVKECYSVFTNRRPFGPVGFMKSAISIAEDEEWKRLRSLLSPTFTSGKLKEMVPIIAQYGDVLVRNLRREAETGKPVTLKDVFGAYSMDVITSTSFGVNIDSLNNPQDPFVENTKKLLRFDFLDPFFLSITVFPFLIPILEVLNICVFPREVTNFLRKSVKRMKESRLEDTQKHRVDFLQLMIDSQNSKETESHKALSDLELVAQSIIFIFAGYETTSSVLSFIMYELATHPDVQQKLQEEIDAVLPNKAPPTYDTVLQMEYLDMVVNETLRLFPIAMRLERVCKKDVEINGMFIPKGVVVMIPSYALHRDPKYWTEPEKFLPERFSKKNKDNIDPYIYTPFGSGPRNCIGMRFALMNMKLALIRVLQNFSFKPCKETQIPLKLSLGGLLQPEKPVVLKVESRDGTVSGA
Method: The inhibitory effect of DHF on CYP3A4 was investigated as described previously. In the enzyme-catalyzed reaction, testosterone is oxidized to 6β-hydroxytestosterone. […] The incubates (with 200 μL final volume) contained CypExpress 3A4 reagent (15 mg/mL; containing also the NADPH generating system), testosterone (5 μM), NADP^+ (200 μM), G6P (500 μM), and increasing concentrations of DHF (0, 5, 10, 15, and 20 μM) in potassium phosphate buffer (50 mM, pH 7.5). Samples were incubated in thermomixer (180 min, 600 rpm, 30 °C). The reaction was started by the addition of the enzyme and stopped by the addition of 100 μL of ice-cold methanol. After centrifugation (10 min, 14,000× g, 25 °C), testosterone and 6β-hydroxytestosterone were analyzed in the supernatants by HPLC (see Section 2.5).
Testosterone and 6β-hydroxytestosterone (CYP3A4 assay) were quantified as reported previously. The samples were driven through a Phenomenex Security Guard (C18, 4.0 × 3.0 mm) guard column linked to a Kinetex EVO C18 (150 × 4.6 mm, 5 μm) analytical column (Phenomenex). The mobile phase contained methanol, water, and glacial acetic acid (59:40:1 v/v%). The isocratic elution was performed at 1.2 mL/min flow rate at room temperature. Testosterone and 6β-hydroxytestosterone were detected at 240 nm.

[5] = test system: T7, warfarin-HSA complex (Site I); test: Fluorescence-based displacement of warfarin from HSA; assay type: binding, human; details: warfarin 1.0 μM, HSA 3.5 μM, DHF 0-10 μM, PBS pH 7.4, λex 317 nm
T7 construct: purchased Sigma-Aldrich
Method: Ultraviolet (UV)-Vis spectra of DHF were recorded employing a Halo DB-20 spectrophotometer (Dynamica; Dietikon, Switzerland), after which the inner filter effect of DHF was corrected in each experiment based on the following equation [26, 28]:(2) Icorr=Iobs×e^(Aex+ Aem)/2, where Icorr and Iobs indicate the corrected and the measured fluorescence emission intensity, respectively, while Aex and Aem denote the absorption of DHF at the excitation and emission wavelengths used, respectively.

CYP2C19 = CYP2C19 (Homo sapiens, UniProt P33261); test: CYP2C19 in vitro enzyme assay (S-mephenytoin to 4-hydroxymephenytoin); assay type: biochemical
Chain of CYP2C19 (P33261 whole entry): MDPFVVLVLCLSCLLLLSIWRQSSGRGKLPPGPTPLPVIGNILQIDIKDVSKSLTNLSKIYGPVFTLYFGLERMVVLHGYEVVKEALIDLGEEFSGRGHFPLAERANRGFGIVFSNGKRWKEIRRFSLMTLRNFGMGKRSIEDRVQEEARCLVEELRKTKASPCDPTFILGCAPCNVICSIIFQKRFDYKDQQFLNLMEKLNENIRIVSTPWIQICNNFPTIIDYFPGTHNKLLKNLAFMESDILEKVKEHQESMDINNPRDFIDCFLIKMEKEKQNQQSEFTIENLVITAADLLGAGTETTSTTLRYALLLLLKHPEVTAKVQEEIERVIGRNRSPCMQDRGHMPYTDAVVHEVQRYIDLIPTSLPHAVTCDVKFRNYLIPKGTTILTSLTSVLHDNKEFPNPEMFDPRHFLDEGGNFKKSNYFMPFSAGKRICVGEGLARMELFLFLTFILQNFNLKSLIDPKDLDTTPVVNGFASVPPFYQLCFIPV
Method: To study the inhibitory effect of DHF on CYP2C19, S-mephenytoin was used as the substrate. During the enzyme-catalyzed reaction, 4-hydroxymephenytoin is formed. […] The incubation was performed in a thermomixer (120 min, 600 rpm, 30 °C). […] After centrifugation (10 min, 14,000× g, 25 °C), S-mephenytoin and 4-hydroxymephenytoin were quantified in the supernatants by HPLC (see Section 2.5).
The mobile phase contained acetonitrile, methanol, and sodium phosphate buffer (10 mM, pH 4.55) (20:15:65 v/v%). […] S-mephenytoin and 4-hydroxymephenytoin were detected at 230 nm.

[6] = design: method as in PMID 29295929; details: mice, cited from earlier work
[7] = cited from earlier work
CYP3A4 [8] = target: T6, CYP3A4; design: method as in PMID 30142539; details: same model as this study; cited from earlier work
CYP2C9 [9] = target: T4, CYP2C9; details: same model as this study; cited from earlier work

Structure (SMILES): O=c1cc(-c2ccccc2)oc2cc(O)cc(O)c12 [chrysin, 5,7-dihydroxyflavone]
- binding constant K to HSA (HSA; chrysin-HSA): 340000 L/mol

Structure (SMILES): O=c1cc(-c2ccccc2)oc2c(O)c(O)ccc12 [DHF, 7,8-dihydroxyflavone]
- fraction of total warfarin became unbound (HSA Site I (warfarin); 10 μM DHF): 12%
- fraction of total warfarin became unbound (HSA Site I (warfarin); 20 μM DHF): 21%
- Stern-Volmer quenching constant KSV ([1]; λex 295 nm, λem 340 nm): 344000 ± 3000 L/mol
- binding constant K of DHF-HSA complex ([1]; nonlinear fitting with Hyperquad2006): 490000 L/mol and 487000 ± 7000 L/mol
- pIC50 [2]: 4.96
- pIC50 (CYP2C9 [3]): 4.46
- IC50(rel) (IC50 divided by substrate concentration) (CYP2C9 [3]; human, 80 min, pH 7.5): 2.3
- α (IC50 of DHF divided by IC50 of positive control) (CYP2C9 [3]; human, 80 min, pH 7.5): 1.0
- further fraction of total naproxen in the filtrate (HSA Site II (naproxen); 10 μM DHF): 14%
- further fraction of total naproxen in the filtrate (HSA Site II (naproxen); 20 μM DHF): 22%
- pIC50 (CYP3A4 [4]): 4.84
- IC50(rel) (IC50 divided by substrate concentration) (CYP3A4 [4]; human, 180 min, pH 7.5): 2.9
- effect on fluorescence emission signal of warfarin at 379 nm [5]: strongly decreased
- pIC50 (CYP2C19): 4.72
- IC50(rel) (IC50 divided by substrate concentration) (CYP2C19; human, 120 min, pH 7.5): 3.8
- plasma concentrations ([6]; per os 15-50 mg/kg DHF): 33 to 192 nM
- oral bioavailability [6]: approximately 4.5%

Structure (SMILES): Clc1ccccc1CN1CCc2sccc2C1 [TIC, ticlopidine]
- peak plasma concentrations ([7]; chronic treatment, oral 250 mg twice daily, men): 3.4 to 4.1 µM
- average peak plasma concentrations ([7]; oral 3 × 100 mg daily, healthy subjects): approximately 3.5 μM
- peak plasma concentration ([7]; oral single 250 mg dose): 1.3 to 2.6 µM

Structure (SMILES): Oc1ccc(/C=C/c2cc(O)cc(O)c2)cc1 [resveratrol]
- inhibitory effect on CYP3A4 compared to DHF (CYP3A4 [8]): two-fold stronger inhibitor

Structure (SMILES): CC(=O)CC(c1ccccc1)c1c(O)c2ccccc2oc1=O (stereo not shown) [WAR, warfarin, reference compound]
- binding constant K to HSA (HSA; warfarin-HSA): 340000 L/mol
- IC50(rel) (IC50 divided by substrate concentration) (CYP2C9 [3]; human, 80 min, pH 7.5): 2.3

Structure (SMILES): COc1ccc(-c2oc3cc(OC)c(OC)c(O)c3c(=O)c2OC)cc1O [casticin]
- fold weaker inhibitor of CYP2C9 compared to DHF (CYP2C9 [9]): 1.3 fold

— publication PMC6920897, “Interactions of 7,8-Dihydroxyflavone with Serum Albumin as well as with CYP2C9, CYP2C19, CYP3A4, and Xanthine Oxidase Biotransformation Enzymes” (Biomolecules, 2019)
